Source: US5780489A, “Method for treating amyotrophic lateral sclerosis” (priority 1996, dated 1998)
“Also recorded” adds a separate entry of the source. Like-named read-outs stand apart in the source and are kept apart here.

Experiments:
[1] = esterase activity absent in human plasma; cited from earlier work
[2] = by an esterase; cited from earlier work
human cells = details: cited from earlier work
[3] = system: rat cerebrospinal fluid (CSF); details: Shikama et al. 1995, cited from earlier work; for rate of uptake into rat cerebrospinal fluid: GSH versus GSH isopropyl ester
cellular ischemia = details: H Shikama et al., 1995; cited from earlier work
[4] = system: γ-glutamyl transpeptidase; details: proposed by Shikama et al.; cited from earlier work
cells [5] = details: Puri and Meister, 1983; cited from earlier work
cells [6] = details: cited from earlier work
[7] = Meister et al., 1986; cited from earlier work
[8] = Meister et al., 1986; cited from earlier work; remark: listed apart in the source
[9] = B Olsson et al., 1988; cited from earlier work
ALS patients [10] = details: cited from earlier work; for survival in ALS (in words): human, in vivo
[11] = system: chronic organotypic spinal cord cultures; details: in vitro, after SOD1 anti-sense oligonucleotides; cited from earlier work
adverse experiences = type: in vivo, human; details: only minor
Source text: The risk of any of these side effects occurring is small; however, should they occur, the dose of medication is reduced or discontinued entirely. However, OTZ is an experimental drug and unexpected side effects may occur.

[12] = OTZ pharmacokinetics (plasma elimination and oral absorption); type: in vivo, human
Procedure: The synthesis of glutathione, an endogenous antioxidant, is often limited by the supply of intracellular cysteine, one of the component amino acids of glutathione. […] Some of these patients continued taking OTZ capsules (up to 9 grams/day) for over two years.
Subjects with ALS were enrolled in a tolerability, pharmacokinetics and pharmacodynamics study of OTZ in ALS patients. In this study, glutathione and cysteine levels in whole blood and CSF and OTZ pharmacokinetics were determined in ten to twenty subjects with ALS. Blood was obtained for baseline glutathione and cysteine levels. A spinal catheter was inserted and baseline CSF samples collected for determination of glutathione and cysteine levels. OTZ (90 ml 5% OTZ injection=4500 mg OTZ) was administered by intravenous infusion through a peripheral vein over 60±10 minutes. At various time points after the start of the OTZ infusion, blood and CSF samples were drawn for determination of OTZ and glutathione levels. The following day, subjects started taking OTZ capsules (3000 mg t.i.d.) for 28 days. After 7 and 14 days of treatment with OTZ capsules, blood was drawn for analyses of safety parameters, glutathione, cysteine and OTZ levels. On the last day of the treatment period, blood and CSF samples were drawn for analysis of OTZ, glutathione, and cysteine levels. The study endpoints were tolerability, and pharmacokinetic and pharmacodynamic data. Safety was determined by clinical history and examination, quantitative neuromuscular examination and a panel of safety laboratory tests. Nine subjects completed the study and samples are analyzed. In addition, CSF was drawn from patients without severe neurological disorders and the GSH levels are analyzed and compared to the levels for ALS patients.

5-oxoprolinase = details: cited from earlier work
patients with ALS = assay: progression of ALS, phase II trial of OTZ and Riluzole versus Riluzole alone; type: in vivo, human; details: 9 months, 3000 mg p.o. t.i.d.
Procedure: 5.3. OTZ in ALS Patients: Phase II Trial
A phase II, bi-center, double-blind randomized controlled comparison trial of the efficacy of OTZ and the anti-glutamate agent, Riluzole, versus Riluzole alone in slowing of disease progression in patients with ALS (50 at each center) is performed. Patients receive treatment for 9 months. Riluzole is approved for marketing by the FDA.
The OTZ and placebo capsules are identical in appearance. Riluzole is administered as tablets obtained from the manufacturer. Riluzole is administered at 50 mg bid to all subjects. The OTZ dose is the same as used in the Phase I study, 3000 mg p.o. t.i.d. However, the final determination of OTZ dose may be modified. Half the subjects receive active OTZ capsules and the other half receive identical appearing placebo capsules.
The primary outcome measure is change in motor and pulmonary function after 9 months of experimental therapy as tested with the Tufts Quantitative Neuromuscular Exam ([…]) and FVC. The secondary outcome measure is based upon ALS Functional Rating Scores.
Analysis is done on an intention to treat basis. The primary analysis tests the difference in average slopes of arm megascores between the OTZ and Riluzole combination and Riluzole alone groups using a two-way ANOVA with treatment and center in the model, with a two-sided alpha=0.05. […]

[13] = system: intracellular glutathione levels; details: cited from earlier work
GSH levels in rat brains = details: cited from earlier work
[14] = system: GSH levels in some cell types; details: Williamson et al. 1981; cited from earlier work
[15] = system: transgenic mice which overexpress the mutant SOD1 protein; details: small, but statistically significant; cited from earlier work
[16] = in vivo; cited from earlier work
ALS patients [17] = details: two controlled studies; cited from earlier work
[18] = system: glutamate release at pre-synaptic terminals; details: cited from earlier work

For `CCOC(=O)CNC(=O)[C@H](CS)NC(=O)CC[C@H](N)C(=O)OCC` [GSH diethylester], the “stability in human blood” value [1] is listed as “stable in human blood”, the “conversion to monoethyl (glycyl) ester in rodent blood plasma” value [2] is listed as “readily converted to monoethyl (glycyl) ester in rodent blood plasma” and the “entry into human cells” value (human cells) is listed as “even more efficiently transported into human cells than the monoester”. For the same compound, the “intracellular GSH levels in human cells” value (human cells) was “increase of intracellular GSH levels”.

For `CC(C)OC(=O)CNC(=O)[C@H](CS)NC(=O)CC[C@H](N)C(=O)O` [GSH isopropyl ester, glutathione isopropyl ester], the “rate of uptake into rat cerebrospinal fluid” value [3] is listed as “the same”, the “total GSH (sum of GSH and GSH ester) in rat CSF” value [3] is listed as “only the ester increased the total GSH” and the “stability in CSF” value ([3]; versus GSH) is listed as “more stable that GSH in the CSF”. The “protection against cellular ischemia” value (cellular ischemia) was “provide protection against cellular ischemia” and the “affinity for γ-glutamyl transpeptidase” value [4] was “reduced affinity”.

In the case of `CCOC(=O)CNC(=O)[C@H](CS)NC(=O)CC[C@H](N)C(=O)O` [GSH monoethylester], the “entry into human cells” value (human cells) is listed as “able to enter human cells” and the “intracellular GSH levels in human cells” value (human cells) is listed as “increase in GSH levels”.

For `N[C@@H](CCC(=O)N[C@@H](CS)C(=O)NCC(=O)O)C(=O)O` [GSH, L-γ-glutamyl-L-cysteinylglycine], the “protection of cells against toxic compounds” value (cells [5]) is given as “can protect some cells against toxic compounds”, the “effect of administration on intracellular GSH levels” value (cells [6]; Meister, U.S. Pat. No. 4,879,370) is given as “has not led to increased intracellular GSH levels” and the transport into cells (cells [6]) is given as “not transported efficiently into cells; also recorded: not efficiently transported into most animal cells”. For the same compound, the “rate of uptake into rat cerebrospinal fluid” value [3] was “the same”.

In the case of `N[C@@H](CS)C(=O)O` [L-cysteine], the “toxicity of high extracellular levels” value [7] is given as “high extracellular levels of cysteine can be toxic”, the transport into cells (cells [6]) is given as “not transported efficiently into cells” and the transport into cells (cells [6]; listed as cysteine) is given as “not efficiently transported into most animal cells”. For the same compound, the “oxidation at neutral pH” value [8] was “oxidized spontaneously at neutral pH”.

In the case of `CC(=O)N[C@@H](CS)C(=O)O` [N-acetylcysteine (NAC), N-acetylcysteine], the “bioavailability in human studies” value [9] is given as “low bioavailability”, the “survival in ALS (in words)” value (ALS patients [10]) is given as “trend towards increasing survival in ALS patients” and the “reversal of death process in spinal cord cultures” value [11] is given as “reversed”.

With `O=C1N[C@H](C(=O)O)CS1` [OTZ, L-2-oxothiazolidine-4-carboxylic acid] the “adverse experiences associated with OTZ” value (adverse experiences) was “stomach upset, dizziness, insomnia, nausea, restlessness and headache”, the elimination from plasma ([12]; after oral or intravenous administration) was “rapidly eliminated from plasma” and the “absorption after oral administration” value ([12]; oral) was “readily absorbed after oral administration”. The half-life ([12]; plasma, after oral or intravenous administration, read-out: T1/2 (elimination from plasma)) was 1 to 2 h, the “conversion to cysteine (enzyme required)” value (5-oxoprolinase) was “requires the enzyme 5-oxoprolinase” and the “metabolism by 5-oxo-L-prolinase” value (5-oxoprolinase; in vitro, in the presence of adenosine triphosphate) was “subjected to the action of 5-oxo-L-prolinase in the presence of adenosine triphosphate to produce S-carboxyl cysteine”. For the same compound, the “rate of progression of ALS” value (patients with ALS) was “slows the rate of progression of ALS”, the “intracellular glutathione levels in animal models” value [13] was “increases intracellular glutathione levels in animal models” and the “GSH levels in rat brains” value (GSH levels in rat brains; Anderson and Meister 1989) was “no effect or only slightly increased GSH levels”. The “level of GSH in rat brains” value (GSH levels in rat brains; subcutaneous injections, Mesina et al. 1989) was “statistically significant increase in the level of GSH in rat brains” and the “increase of GSH levels in some cell types” value [14] was “effective in increasing GSH levels in some cell types”.

For `Nc1nc2ccc(OC(F)(F)F)cc2s1` [Riluzole], the “prolongation of survival of ALS patients” value (ALS patients [10]; G Bensimon et al., 1994) is listed as 12%, the “survival in ALS (in words)” value (ALS patients [10]) is listed as “extend survival in ALS; also recorded: improve survival in ALS; also recorded: small affect on survival” and the “prolongation of lifespan in patients with ALS” value (ALS patients [10]; two studies, statistically significant, but small, G Bensimon et al., 1994) is listed as 18%. For the same compound, the “prolongation of survival in transgenic SOD1 mutant mice” value [15] was 11%, the “known adverse experiences associated with Riluzole therapy” value [16] was “asthenia, fatigue and asymptomatic elevation of liver function tests” and the improvement in strength (ALS patients [17]) was “without a concomitant improvement in strength”. For the same compound, the “release of glutamates at pre-synaptic terminals” value [18] was “inhibits release of glutamates at pre-synaptic terminals”.
